# Experiments:
# [1] = test system: AMPK; assay: Characterization of AMPK activation by Western blot in PC-3 and LNCaP cells (Dorsomorphin, siRNA); format: cell-based, human
# Protocol: To further confirm the compound 8c-induced activation of AMPK, PC-3 and LNCaP cells were incubated with the compound for 1 h and 24 hours in the presence of the AMPK inhibitor Dorsomorphin. […] Accordingly, ACC phosphorylation was increased at 1 h and 24 h and prevented by Dorsomorphin in both cell lines. AMPK inhibits mTORC1 through phosphorylation of Raptor on two well-conserved serine residues (ser722 and ser792) inducing cell-cycle arrest in response to an energy stress. To further support the 8c-induced AMPK activation, we determined Raptor phosphorylation on Ser792 in prostate cells.
# Figure 5 AMPK activation by compound 8c in prostate cancer cells. (A) PC-3 and LNCaP cells were treated with vehicle, 25 µM compound 8c, 25 µM compound 8c + 5 μM Dorsomorphin (8c + D) or 5 μM Dorsomorphin (D), for 1 hour or 24 hours and levels of the phosphorylated AMPK (pAMPK), phosphorylated ACC (pACC), phosphorylated Raptor (pRaptor) forms and HIF1α were determined by Western blot. Upper panel, representative Western blot of three different experiments. β-tubulin (β-Tub) serves as a loading control. Lower panel, densitometric analyses of bands represented as the mean of the ratio pAMPK/AMPK or pACC/ACC. (B) Cell viability monitored by MTT assay in PC-3 and LNCaP cells treated with vehicle, 25 µM and 50 μM compound 8c alone or in the presence of 5 μM Dorsomorphin or transfected with control siRNA (siC) or α1AMPK-selective siRNA (siAMPK). (C) LNCaP cells were treated with vehicle, 25 µM compound 8c, 25 µM compound 8c + 5 μM Dorsomorphin (8c + D) or 5 μM Dorsomorphin (D), for 24 hours and levels of Androgen Receptor (AR), Prostate specific antigen (PSA) and Prostate specific membrane antigen (PSMA) were determined by Western blot.Values were normalized with the control and represent the mean ± SD of at least three independent experiments. *p < 0.05 and **p < 0.01 compared to control and ^#p < 0.05 and ^##p < 0.01 compared with 8c-treated group by the Student’s t-test.
# AMPK is a heterotrimeric protein composed by catalytic (α) and regulatory (β and γ) subunits. In mammals, different isoforms of α, β and γ subunits can associate to produce up to 12 AMPK different combinations. […]
# Figure 6 Phosphorylation of AMPK and ACC in prostate cells transfected with selective AMPKα1 or AMPKα2 siRNA. […] Levels of the phosphorylated AMPK (pAMPK), phosphorylated ACC (pACC) and their total forms were determined by Western blot. […]
# Cells were lysed in Lysis buffer (50 mM Tris pH 7.4, 0.8 M NaCl, 5 mM MgCl2, 0.1% Triton X-100) containing Protease Inhibitor and Phosphatase inhibitor Cocktails (Roche, Basel, Switzerland). Protein concentrations were measured by BioRad™ protein assay kit (Richmond, CA, USA). […]
# [2] = test system: DU145 cells; assay: Cell viability by MTT assay, DU145; format: cell-based, human
# Protocol: Figure 3 Comparison of the effect of 2-oxindole fluorinated derivatives on the proliferation of human prostate cancer cells. (A) Normal (PTN2 and RWPE-1) and cancer (PC3,DU145 and LNCaP) prostate cells were treated with different doses of the compounds for 24 hours and cell viability was monitored by MTT assay. […] (C) PC-3, DU145 and LNCaP cells were treated with 25 µM of compound 8c for different times. Values were normalized with the control and represent the mean ± SD of at least three independent experiments. *p < 0.05 and **p < 0.01 compared to control by the Student’s - test.
# Human prostate cancer epithelial PC-3, DU145 and LNCaP and human prostate normal RWPE-1 cells were purchased from American Type Culture Collection (ATCC CRL-1435 CRL-1740 and CRL 11609 respectively) (Rockville, MD, USA). The human prostate normal PNT2 cell line was purchased to ECACC (European Collection of Cell cultures, Salisbury, SP4 0JG, UK). Cells were routinely grown in RPMI 1640 medium supplemented with 100 IU/ml penicillin G sodium, 100 µg/ml streptomycin sulfate, 0.25 µg/ml amphotericin B (Invitrogen, Paisley, UK) and 10% fetal calf serum. Cells were used at passages between 10–20. For treatment experiments, cells were plated and grown over night, the medium was then replaced with serum-free RPMI 1640 for 24 hours and then incubated with different doses of the compounds for the indicated times.
# Cell viability was determined by 3-(4,5-dimethylthiazol-2-yl)-2,5-diphenyltetrazolium bromide (MTT) (Sigma-Aldrich) method. In brief, a total of 5000 cells/well were seeded into 12-well plate in a final volume of 1 mL. After treatments, 20 µl MTT solution (5 mg/ml in PBS) was added to the medium and cells were incubated at 37 °C for 4 h. Then, the supernatant was discarded and isopropanol was added to dissolve the formazan crystals. Treatments were carried out in triplicate. The optical density in each well was evaluated by measurement of absorbance at 490 and 650 nm using a microplate reader (ELX 800 Bio-Tek Intruments, INC). IC50 values were calculated using GraphPad Prism vs 6.0 (GraphPad Software, Inc, La Jolla, CA, USA). Cell viability was also determined by counting viable and dead cells by Trypan blue staining. Trypan blue positive and negative cells were counted using a Countess^TM automated cell counter (Invitrogen, Carlsbad, CA, USA). Results were expressed in relation to total number of cells counted.
smiles,measurement,setting,value
"O=C1Nc2ccccc2C1(F)Cc1ccc(-c2ccccc2)o1 (centres unmarked) [Compound 8c, 3-fluoro-3-((5-phenylfuran-2-yl)methyl)indolin-2-one]",activation of AMPK at 24 hours,"[1]; PC-3 and LNCaP cells, 25 µM, 24 hours vs 1 hour","also seen at 24 hours, being even more robust that at 1 hour of treatment"
same,8c-induced AMPK phosphorylation with AMPKα1 subunit knocked down,"[1]; siRNA AMPKα1, 25 μM, 1 h",almost totally blocked
same,AMPK and ACC phosphorylation with AMPKα2 subunit silenced,"[1]; siRNA AMPKα2, 25 μM, 1 h",still was able to phosphorylate AMPK and ACC at a similar level than in non-silenced (siC) cells
same,inhibitory efficacy on cells viability at 50 μM,"[2]; DU145, 50 μM",88%
same,IC50,"[2]; Homo sapiens, DU-145, DU145, MTT, 24 hours",19 µM

# — article PMC5847527, “Identification of a novel 2-oxindole fluorinated derivative as in vivo antitumor agent for prostate cancer acting via AMPK activation” (Scientific Reports, 2018)
